# Experimental data as given in patent publication EP0323147A2, “1-Aralkyl-1,2-dihydropyrimidine-2-thiones” (SMITHKLINE BECKMAN CORPORATION, priority 1987, dated 1989).
# Marks after values point to notes of the source that are not given here.
# What was measured:
# DBH = target: T1, DBH (Homo sapiens, UniProt P09172); test: in vitro DBH inhibition, conversion of tyramine to octopamine in the presence of DBH; assay type: biochemical; conditions: for percent inhibition: at 10⁻⁵ M compound concentration, IC₅₀ not determined
# T1 sequence (P09172 1-617): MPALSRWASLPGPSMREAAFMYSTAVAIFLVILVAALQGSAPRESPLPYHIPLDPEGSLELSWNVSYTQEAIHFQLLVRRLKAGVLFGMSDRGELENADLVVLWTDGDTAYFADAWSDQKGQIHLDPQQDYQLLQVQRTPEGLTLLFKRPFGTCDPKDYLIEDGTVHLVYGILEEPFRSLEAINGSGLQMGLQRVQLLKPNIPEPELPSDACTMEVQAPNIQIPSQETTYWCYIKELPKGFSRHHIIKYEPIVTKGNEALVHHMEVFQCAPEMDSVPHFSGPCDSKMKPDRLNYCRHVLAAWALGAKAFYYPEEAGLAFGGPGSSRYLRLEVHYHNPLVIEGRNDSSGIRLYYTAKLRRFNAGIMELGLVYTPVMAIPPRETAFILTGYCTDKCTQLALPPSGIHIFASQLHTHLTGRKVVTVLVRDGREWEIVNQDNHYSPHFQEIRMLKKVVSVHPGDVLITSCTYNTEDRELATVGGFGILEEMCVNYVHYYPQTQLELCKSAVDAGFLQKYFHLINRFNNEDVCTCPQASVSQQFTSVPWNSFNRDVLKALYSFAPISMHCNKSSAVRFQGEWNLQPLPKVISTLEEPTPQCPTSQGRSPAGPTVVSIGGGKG
# Experimental: Because the compounds of structure (I) inhibit DBH activity they have therapeutic value as diuretic, natriuretic, cardiotonic, antihypertensive, and vasodilatoragents, as well as antiulcerogenic and anti-Parkinson agents. Listed in Table I are the compounds of the invention that were tested for in vitro DBH inhibition by a standard procedure for assaying conversion of tyramine to octopamine in the presence of DBH. J.J. Pisano, et al., Biochim. Biophys. Acta, 43, 566-568 (1960). Octopamine was assayed following sodium periodate oxidation to p-hydroxy-benzaldehyde by measuring spectrophotometric absorbance at 330 nm. In Table I, inhibition is given in micromolar concentration of compound at which DBH activity was halved (IC₅₀). […]
# [1] = literature, Teresawa et al., Japan Cir. J. 35, 339 (1971); cited from earlier work
# [2] = tested on: spontaneously hypertensive rats; test: mean arterial blood pressure in spontaneously hypertensive rats after oral dosing; assay type: in vivo; conditions: 50 mg/kg orally, compared to vehicle-treated controls
# Experimental: Further, spontaneously hypertensive rats were treated with a suspension or solution of 1-(3,5-fluorobenzyl)-1,2,-dihydropyrimidine-2-thione hydrochloride at a dose of 50 mg/kg orally and mean arterial blood pressure was monitored for 260 minutes using indwelling cannulae in the tail arteries. […] Maximal blood pressure reduction was approximately 25 to 30 mm Hg.
smiles,measurement,setting,value
"Cl.Fc1cccc(Cn2cccnc2=S)c1 [1-(3-Fluorobenzyl)-1,2-dihydropyrimidine 2-thione Hydrochloride]",percent inhibition,DBH,15%^a
"S=c1ncccn1Cc1ccccc1 [1-benzyl-1,2-dihydropyrimidine-2-thione, 1-Benzyl-1,2-dihydropyrimidine-2 thione]",percent inhibition,DBH,5%^a
CCCCc1ccc(C(=O)O)nc1 [fusaric acid],toxic effects,[1],hepatotoxic
"Cl.Fc1cc(F)cc(Cn2cccnc2=S)c1 [1-(3,5-Difluorobenzyl)-1,2-dihydropyrimidine 2-thione Hydrochloride]",IC50,"DBH; concentration of compound at which DBH activity was halved, read-out: DBH IC₅₀",2800 nM
same,time after treatment to significant blood pressure reductions,[2],≤ 30 min
